Assay results taken from US20150141439A1, “PHARMACEUTICAL COMPOSITION FOR THE PREVENTION OR TREATMENT OF BRAIN TUMOR OR TEMODAL RESISTANT GLIOBLASTOMA MULTIFORM COMPRISING AZATHIOPRINE AS AN ACTIVE INGREDIENT” (KOREA RESEARCH INSTITUTE OF CHEMICAL TECHNOLOGY, priority 2012, published 2015).
pIC50: −log10 of the molar value.

Assays:
[1] = test system: classical subtype glioblastoma multiform (626T); test: cells; details: Homo sapiens, 72 h
Experimental: (§1) Particularly, the cell growth inhibition effect was measured by WST-1 cell proliferation assay [http://www.roche-applied-science.com/PROD_INF/MANUALS/CELL_MAN/apoptosis—087—088.pdf]. The compound of formula 1 was loaded in a 384-well cell culture plate. Three types of glioblastoma multiform cell lines [proneural subtype (559T), mesenchymal subtype (592T), and classical subtype (626T)], normal human astrocytes (NHA), a lung cancer cell line (A549), and a glioblastoma multiform cell line (U87MG) were distributed in the plate at the density of 4.5×10^3 cells/well, and the medium was filled up to make 50 μl per well. At this time, the concentration of the solvent DMSO for the compound of formula 1 was no more than 0.2%. After culturing the cells for 72 hours, 5 mg/ml of WST-1 reagent was added by 5 μl per well, followed by reaction for 3˜4 hours. Then OD450 was measured to investigate the effect of the compound of formula 1 on cell proliferation.

[2] = test system: proneural subtype glioblastoma multiform (559T); test: cells; details: Homo sapiens, 72 h
Experimental: as §1

[3] = test system: GBM #1 glioblastoma multiform patient originated cells; test: Neurosphere formation inhibition, GBM #1; type: cell-based, human; design: key to inhibition of neurosphere formation: S: strong effect; I: intermediate effect; R: rare effect
Experimental: (§2) Particularly, to investigate neurosphere formation, glioblastoma multiform cells were cultured for a certain time and the cells were distributed again in culture vessels, followed by additional culture. Then, the number of newly generated neurospheres was measured. First, the glioblastoma multiform patient originated cells were sub-cultured, which were distributed in a 96-well plate (20, 50, and 200 cells in 50 μl of culture medium/well). 2, 6, and 20 μM of the compound of formula 1 (azathioprine) and the compound of Comparative Example 1 (Temodal) were treated thereto by 50 μl per well to make the final concentrations of 1, 3, and 10 μM. Then, the compound of formula 1 (azathioprine) and the compound of Comparative Example 1 (Temodal) were added to 50 μl of cell culture medium with the same concentrations as the above once a week, which were then cultured for 7˜23 days. When neurosphere was formed at least 50 μm in the control group not treated with the compound, the number of neurospheres in each well was counted to compare the neurosphere formation before and after the treatment of the compound of formula 1 (azathioprine) and the compound of Comparative Example 1 (Temodal).
The glioblastoma multiform cells used in this experiment were classified into 4 types, which are type A, type B, type C, and type D, according to the gene expression pattern. Methylation of MGMT (O6-me-G methyltransferase), the DNA repair protein, was confirmed in each cell line. At that time, type A [GBM #1, #2, #3] was proneural subtype, type B [GBM #4, #5, #6, #7] was classical subtype, type C [GBM #8] was mesenchymal subtype, and type D [GBM #9, #10] was non-classified glioblastoma multiform.

[4] = test system: GBM #8 glioblastoma multiform patient originated cells; test: Neurosphere formation inhibition, GBM #8; type: cell-based, human; design: key: S: strong effect; I: intermediate effect; R: rare effect; details: GBM #8, type C (mesenchymal), Azathioprine 1 μM, duration 15 day
Experimental: as §2
The glioblastoma multiform cells used in this experiment were classified into 4 types, which are type A, type B, type C, and type D, according to the gene expression pattern. […]

[5] = test system: CCD986SK Human fibroblast; test: Secondary cytotoxicity test, CCD986SK; type: cell-based; details: CCD-986Sk
Experimental: as §1
To investigate the cell growth inhibition effect of the compound of formula 1 of the present invention (azathioprine) in many different cell lines, secondary cytotoxicity test was performed with the cell lines listed in Table 5 by the same manner as described in Example 1.

[6] = read-out: Cell Growth Inhibition (% Inhibition)

Compound: Cn1cnc([N+](=O)[O-])c1Sc1ncnc2nc[nH]c12 [Azathioprine, 6-(1-methyl-4-nitro-1H-imidazol-5-ylthio)-7H-purine]
- GI50 [1]: 3.1 µM
- inhibition at 0.032 µM [1, 6]: 20.2%
- inhibition at 0.1 µM [1, 6]: 34.9%
- inhibition at 0.32 µM [1, 6]: 30%
- inhibition at 1 µM [1, 6]: 42.5%
- inhibition at 3.2 µM [1, 6]: 61.8%
- inhibition at 10 µM [1, 6]: 76.3%
- GI50 [2]: 1.3 µM
- inhibition at 0.032 µM [2, 6]: -4.2%
- inhibition at 0.1 µM [2, 6]: 2.6%
- inhibition at 0.32 µM [2, 6]: 9.7%
- inhibition at 1 µM [2, 6]: 35.9%
- inhibition at 3.2 µM [2, 6]: 65.8%
- inhibition at 10 µM [2, 6]: 78.6%
- inhibition of neurosphere formation ([3]; GBM #1, type A (proneural), Azathioprine 1 μM, duration 7 day): R
- neurosphere formation ([3]; GBM#1, azathioprine raised to 10 μM): significantly inhibited
- inhibition of neurosphere formation [4]: S
- pIC50 [5]: < 5.00
